Read-outs that look alike come from different tables or passages of the source.
Legend:
Format in all cases: in vivo
[1] = system: crabgrass, large (large crabgrass, Digitaria sanguinalis); assay: Test A pre-/postemergence: crabgrass, large; details: for pest or weed control at 125 g/ha / pest or weed control at 500 g/ha: Digitaria sanguinalis, 240 h; for pest or weed control at 125 g/ha: 125 g ai/ha; for pest or weed control at 500 g/ha: 500 g ai/ha; for Crabgrass, Large plant response rating: 1000 g ai/ha
Procedure, shortened: (§1)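 Each species received preemergence soil-directed spraying and, at the same time, postemergence treatment of seedlings 2–10 cm tall. Formulation: non-phytotoxic solvent mixture including surfactant. Response assessed visually about ten days on, relative to untreated controls, 0–100 scale.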

[2] = system: foxtail, giant (giant foxtail, Setaria faberii); assay: Test A pre-/postemergence: foxtail, giant; details: Setaria faberi, 240 h; for pest or weed control at 125 g/ha: 125 g ai/ha; for pest or weed control at 500 g/ha: 500 g ai/ha
Procedure, shortened: as §1

[3] = system: morningglory (Ipomoea spp.); assay: Test A pre-/postemergence: morningglory; details: for pest or weed control at 125 g/ha / pest or weed control at 500 g/ha: Ipomoea, 240 h; for pest or weed control at 125 g/ha: 125 g ai/ha; for pest or weed control at 500 g/ha: 500 g ai/ha; for Morningglory plant response rating: 1000 g ai/ha
Procedure, shortened: as §1

[4] = system: kochia (Kochia scoparia); assay: Test C pre-/postemergence: kochia
From the text: (§2) Seeds of plant species selected from blackgrass (Alopecurus myosuroides), bromegrass, downy (downy bromegrass, Bromus tectorum), foxtail, green (green foxtail, Setaria viridis), ryegrass, Italian (Italian ryegrass, Lolium multiflorum), winter wheat (Triticum aestivum), wild oat (Avena fatua), galium (catchweed bedstraw, Galium aparine), bermudagrass (Cynodon dactylon), surinam grass (Brachiaria decumbens), cocklebur (common cocklebur, Xanthium strumarium), corn (Zea mays), large crabgrass (Digitaria sanguinalis), woolly cupgrass (Eriochloa villosa), foxtail, giant (giant foxtail, Setaria faberii), goosegrass (Eleusine indica), johnsongrass (Sorghum halepense), kochia (Kochia scoparia), lambsquarters (Chenopodium album), morningglory (Ipomoea coccinea), nightshade (eastern black nightshade, Solanum ptycanthum), nutsedge, yellow (yellow nutsedge, Cyperus esculentus), pigweed (Amaranthus retroflexus), ragweed (common ragweed, Ambrosia elation), soybean (Glycine max), common (oilseed) sunflower (Helianthus annuus), Russian thistle (Salsola kali) and velvetleaf (Abutilon theophrasti) were planted into a blend of loam soil and sand and treated preemergence with test chemicals formulated in a non-phytotoxic solvent mixture which included a surfactant.
(§3) At the same time, plants selected from these crop and weed species and also barley (winter barley, Hordeum vulgare), canarygrass (Phalaris minor), chickweed (common chickweed, Stellaria media) windgrass (Apera spica-venti) and deadnettle (henbit deadnettle, Lamium amplexicaule) were planted in pots containing Redi-Earth® planting medium (Scotts Company, 14111 Scottslawn Road, Marysville, Ohio 43041) comprising spaghnum peat moss, vermiculite, wetting agent and starter nutrients and treated with postemergence applications of test chemicals formulated in the same manner. Plants ranged in height from 2 to 18 cm (1- to 4-leaf stage) for postemergence treatments.
(§4) Treated plants and controls were maintained in a greenhouse for 13 to 15 days, after which time all species were compared to controls and visually evaluated. Plant response ratings, summarized in Table C, are based on a scale of 0 to 100 where 0 is no effect and 100 is complete control. A dash (-) response means no test result.

[5] = system: nutsedge, yellow (yellow nutsedge, Cyperus esculentus); assay: Test C pre-/postemergence: nutsedge, yellow
From the text: as §2, §3, §4

[6] = system: ragweed (common ragweed, Ambrosia elation); assay: Test C pre-/postemergence: ragweed
From the text: as §2, §3, §4

[7] = system: soybean (Glycine max); assay: Test C pre-/postemergence: soybean
From the text: as §2, §3, §4

[8] = system: velvetleaf (Abutilon theophrasti); assay: Test C pre-/postemergence: velvetleaf
From the text: as §2, §3, §4

[9] = post-emergence, Postemergence, 0 to 100 scale, 0 is no effect, 100 is complete control, read-out: Crabgrass, Large plant response rating
[10] = post-emergence, Postemergence, visual rating on 0 to 100 scale (0 no effect, 100 complete control), approximately ten days, read-out: Crabgrass, Large plant response rating
[11] = pre-emergence, Preemergence, 0 to 100 scale (0 no effect, 100 complete control), read-out: Plant response rating, Crabgrass, Large
[12] = post-emergence, Postemergence, 0 to 100 scale, 0 is no effect, 100 is complete control, read-out: Foxtail, Giant plant response rating
[13] = post-emergence, Postemergence, visual rating on 0 to 100 scale (0 no effect, 100 complete control), approximately ten days, read-out: Foxtail, Giant plant response rating
[14] = pre-emergence, Preemergence, 0 to 100 scale (0 no effect, 100 complete control), read-out: Plant response rating, Foxtail, Giant
[15] = post-emergence, Postemergence, 0 to 100 scale, 0 is no effect, 100 is complete control, read-out: Morningglory plant response rating
[16] = post-emergence, Postemergence, visual rating on 0 to 100 scale (0 no effect, 100 complete control), approximately ten days, read-out: Morningglory plant response rating
[17] = pre-emergence, Preemergence, 0 to 100 scale (0 no effect, 100 complete control), read-out: Plant response rating, Morningglory
[18] = Postemergence, visual rating on 0 to 100 scale (0 no effect, 100 complete control), approximately ten days
[19] = Preemergence, 0 to 100 scale, 0 is no effect, 100 is complete control
[20] = Postemergence, 31 g ai/ha, scale 0 to 100 (0 no effect, 100 complete control)
[21] = Postemergence, 62 g ai/ha, scale 0 to 100 (0 no effect, 100 complete control)
[22] = Postemergence, 125 g ai/ha, scale 0 to 100, 0 no effect, 100 complete control
[23] = Postemergence, 250 g ai/ha, scale 0 to 100
[24] = Preemergence, 31 g ai/ha, scale of 0 to 100, 0 is no effect, 100 is complete control
[25] = Preemergence, 62 g ai/ha, scale of 0 to 100, 0 is no effect, 100 is complete control
[26] = Preemergence, 125 g ai/ha, scale 0 to 100, 0 no effect, 100 complete control
[27] = Preemergence, 250 g ai/ha, scale 0 to 100, 0 no effect, 100 complete control
[28] = pre-emergence, Preemergence, 0 to 100 scale where 0 is no effect and 100 is complete control, read-out: Plant response rating, Crabgrass, Large
[29] = pre-emergence, Preemergence, 0 to 100 scale where 0 is no effect and 100 is complete control, read-out: Plant response rating, Foxtail, Giant
[30] = pre-emergence, Preemergence, 0 to 100 scale where 0 is no effect and 100 is complete control, read-out: Plant response rating, Morningglory

## Cc1nn(-c2ccc(C(F)(F)F)cc2)nc1Oc1csc(C(F)(F)F)c1 [Compound 1, 4-methyl-2-[4-(trifluoromethyl)phenyl]-5-[[5-(trifluoromethyl)-3-thienyl]oxy]-2H-1,2,3-triazole]
[1]; [9]
  pest or weed control at 125 g/ha: 70%
[1]; [10]
  pest or weed control at 500 g/ha: 90%
[1]; [11]
  pest or weed control at 125 g/ha: 70%
[1]; pre-emergence, Preemergence, 0 to 100 scale, 0 is no effect, 100 is complete control, read-out: Plant response rating, Crabgrass, Large
  pest or weed control at 500 g/ha: 100%
[2]; [12]
  pest or weed control at 125 g/ha: 50%
[2]; [13]
  pest or weed control at 500 g/ha: 70%
[2]; [14]
  pest or weed control at 125 g/ha: 60%
[2]; pre-emergence, Preemergence, 0 to 100 scale, 0 is no effect, 100 is complete control, read-out: Plant response rating, Foxtail, Giant
  pest or weed control at 500 g/ha: 100%
[3]; [15]
  pest or weed control at 125 g/ha: 50%
[3]; [16]
  pest or weed control at 500 g/ha: 100%
[3]; [17]
  pest or weed control at 125 g/ha: 0%
[3]; pre-emergence, Preemergence, 0 to 100 scale, 0 is no effect, 100 is complete control, read-out: Plant response rating, Morningglory
  pest or weed control at 500 g/ha: 20%

## Cc1nn(-c2ccc(C(F)(F)F)cn2)nc1Cc1cccc(C(F)(F)F)c1 [Compound 106]
[1]; [18]
  Crabgrass, Large plant response rating: 80
[1]; [19]
  Crabgrass, Large plant response rating: 90
[3]; [18]
  Morningglory plant response rating: 100
[3]; [19]
  Morningglory plant response rating: 20
[4]; [20]
  Plant response rating, Kochia: 85
[4]; [21]
  Plant response rating, Kochia: 85
[4]; [22]
  Plant response rating, Kochia: 85
[4]; [23]
  Plant response rating, Kochia: 90
[4]; [24]
  Plant response rating, Kochia: 0
[4]; [25]
  Plant response rating, Kochia: 0
[4]; [26]
  Plant response rating, Kochia: 45
[4]; [27]
  Plant response rating, Kochia: 65
[5]; [20]
  Plant response rating, Nutsedge, Yellow: 0
[5]; [21]
  Plant response rating, Nutsedge, Yellow: 0
[5]; [22]
  Plant response rating, Nutsedge, Yellow: 0
[5]; [23]
  Plant response rating, Nutsedge, Yellow: 0
[5]; [24]
  Plant response rating, Nutsedge, Yellow: 0
[5]; [25]
  Plant response rating, Nutsedge, Yellow: 0
[5]; [26]
  Plant response rating, Nutsedge, Yellow: 0
[5]; [27]
  Plant response rating, Nutsedge, Yellow: 0
[6]; [20]
  Plant response rating, Ragweed: 10
[6]; [21]
  Plant response rating, Ragweed: 55
[6]; [22]
  Plant response rating, Ragweed: 60
[6]; [23]
  Plant response rating, Ragweed: 60
[6]; [24]
  Plant response rating, Ragweed: 0
[6]; [25]
  Plant response rating, Ragweed: 0
[6]; [26]
  Plant response rating, Ragweed: 0
[6]; [27]
  Plant response rating, Ragweed: 55
[7]; [20]
  Plant response rating, Soybean: 10
[7]; [21]
  Plant response rating, Soybean: 15
[7]; [22]
  Plant response rating, Soybean: 60
[7]; [23]
  Plant response rating, Soybean: 65
[7]; [24]
  Plant response rating, Soybean: 0
[7]; [25]
  Plant response rating, Soybean: 0
[7]; [26]
  Plant response rating, Soybean: 5
[7]; [27]
  Plant response rating, Soybean: 5
[8]; [20]
  Plant response rating, Velvetleaf: 5
[8]; [21]
  Plant response rating, Velvetleaf: 45
[8]; [22]
  Plant response rating, Velvetleaf: 65
[8]; [23]
  Plant response rating, Velvetleaf: 65
[8]; [24]
  Plant response rating, Velvetleaf: 0
[8]; [25]
  Plant response rating, Velvetleaf: 0
[8]; [26]
  Plant response rating, Velvetleaf: 0
[8]; [27]
  Plant response rating, Velvetleaf: 10

## COCc1nn(-c2ccc(C(F)(F)F)cc2)nc1Oc1cccc(OC(F)(F)F)c1 [Compound 115, 4-(methoxymethyl)-5-[3-(trifluoromethoxy)phenoxy]-2-[4-(trifluoromethyl)phenyl]-2H-1,2,3-triazole]
[1]; [9]
  pest or weed control at 125 g/ha: 50%
[1]; [10]
  pest or weed control at 500 g/ha: 80%
[1]; [28]
  pest or weed control at 125 g/ha: 80%
[1]; [11]
  pest or weed control at 500 g/ha: 100%
[2]; [12]
  pest or weed control at 125 g/ha: 30%
[2]; [13]
  pest or weed control at 500 g/ha: 60%
[2]; [29]
  pest or weed control at 125 g/ha: 60%
[2]; [14]
  pest or weed control at 500 g/ha: 100%
[3]; [15]
  pest or weed control at 125 g/ha: 90%
[3]; [16]
  pest or weed control at 500 g/ha: 100%
[3]; [30]
  pest or weed control at 125 g/ha: 0%
[3]; [17]
  pest or weed control at 500 g/ha: 10%

## FCc1nn(-c2ccc(C(F)(F)F)cc2)nc1Oc1cccc(OC(F)(F)F)c1 [Compound 116, 4-(fluoromethyl)-5-[3-(trifluoromethoxy)phenoxy]-2-[4-(trifluoromethyl)phenyl]-2H-1,2,3-triazole]
[1]; [9]
  pest or weed control at 125 g/ha: 40%
[1]; [10]
  pest or weed control at 500 g/ha: 80%
[1]; [28]
  pest or weed control at 125 g/ha: 70%
[1]; [11]
  pest or weed control at 500 g/ha: 100%
[2]; [12]
  pest or weed control at 125 g/ha: 30%
[2]; [13]
  pest or weed control at 500 g/ha: 50%
[2]; [29]
  pest or weed control at 125 g/ha: 60%
[2]; [14]
  pest or weed control at 500 g/ha: 90%
[3]; [15]
  pest or weed control at 125 g/ha: 70%
[3]; [16]
  pest or weed control at 500 g/ha: 100%
[3]; [30]
  pest or weed control at 125 g/ha: 0%
[3]; [17]
  pest or weed control at 500 g/ha: 10%

Source: patent publication US9302999B2, “Substituted triazoles as herbicides” (E. I. DU PONT DE NEMOURS AND COMPANY, priority 2012, dated 2016)
